Results: patent US11987581B1 (KING FAISAL UNIVERSITY, priority 2023, dated 2024)

Target: T1, recombinant human CK2 (RRββ-holoenzyme) (Homo sapiens, UniProt P68400)
T1 construct: purchased Millipore
Experiment: CK2 Kinase Assay (radiometric, [γ-33P] ATP)
Format: biochemical
Conditions: final ATP concentration 15 μM; 10 min at 30° C.; eight concentrations; read-out: protein kinase CK2 activity IC50
Protocol: CK2 Kinase Assay was conducted using the protocol as described in Pierre F. et al; J. Med. Chem. 2011, 54, 635-654. The tested compounds in aqueous solution were added at a volume of 10 μL to a reaction mixture comprising 10 μL of assay dilution buffer (ADB; 20 mM MOPS, pH 7.2, 25 mM β-glycerol phosphate, 5 mM EGTA, 1 mM sodium orthovanadate, and 1 mM dithiothreitol), 10 μL of substrate peptide (RRRDDDSDDD, dissolved in ADB at a concentration of 1 mM), 10 μL of recombinant human CK2 (RRββ-holoenzyme, 25 ng dissolved in ADB; Millipore). Reactions were initiated by the addition of 10 μL of ATP solution (90% 75 mMMgCl2, 75 μM ATP (final ATP concentration: 15 μM) dissolved in ADB; 10% [γ-33P] ATP (stock 1 mCi/100 μL; 3000 Ci/mmol (Perkin-Elmer) and maintained for 10 min at 30° C. The reactions were quenched with 100 μL of 0.75% phosphoric acid and then transferred to and filtered through a phosphor cellulose filter plate (Millipore). After washing each well five times with 0.75% phosphoric acid, the plate was dried under vacuum for 5 min and, following the addition of 15 μL of scintillation fluid to each well, the residual radioactivity was measured using a Wallac luminescence counter. The IC50 values were derived from eight concentrations of test inhibitors.

T1 sequence (P68400 whole entry): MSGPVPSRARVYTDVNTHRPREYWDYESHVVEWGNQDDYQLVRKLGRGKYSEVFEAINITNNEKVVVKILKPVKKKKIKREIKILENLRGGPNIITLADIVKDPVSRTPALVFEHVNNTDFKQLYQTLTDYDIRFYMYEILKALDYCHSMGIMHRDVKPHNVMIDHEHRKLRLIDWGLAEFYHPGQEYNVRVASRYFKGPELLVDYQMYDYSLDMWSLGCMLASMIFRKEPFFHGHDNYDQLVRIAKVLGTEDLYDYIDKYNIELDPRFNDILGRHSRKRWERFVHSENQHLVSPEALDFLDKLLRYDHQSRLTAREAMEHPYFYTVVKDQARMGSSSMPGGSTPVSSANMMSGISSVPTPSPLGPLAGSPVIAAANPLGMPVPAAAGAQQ
T1 sequence (P67870 whole entry partner): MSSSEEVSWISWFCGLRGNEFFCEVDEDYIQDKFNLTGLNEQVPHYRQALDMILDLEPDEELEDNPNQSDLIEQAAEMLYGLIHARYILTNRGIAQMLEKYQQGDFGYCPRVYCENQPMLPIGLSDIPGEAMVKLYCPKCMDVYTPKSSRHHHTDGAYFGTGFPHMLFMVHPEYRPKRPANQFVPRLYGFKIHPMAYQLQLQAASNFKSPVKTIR

`O=C(O)c1cn2c(Nc3cccc(Cl)c3)nc3ccncc3c2n1` [Compound 1] was tested, and the IC50 was 41 nM.
